Experimental data published in patent publication EP4389210A1, “HETEROARYL COMPOUNDS FOR THE CONTROL OF INVERTEBRATE PESTS” (BASF SE, priority 2022, dated 2024).

Experiments:
Type in all cases: in vivo
Dichromothrips corbetti = experiment: Orchid thrips (Dichromothrips corbetti) floral-immersion test; details: adult thrips on dipped orchid petals, recorded 72 hours after treatment, read-out: mortality in comparison with untreated controls
Procedure: Dichromothrips corbetti adults used for bioassay were obtained from a colony maintained continuously under laboratory conditions. For testing purposes, the test compound is diluted in a 1:1 mixture of acetone:water (vol:vol), plus Kinetic HV at a rate of 0.01% v/v.
Thrips potency of each compound was evaluated by using a floral-immersion technique. All petals of individual, intact orchid flowers were dipped into treatment solution and allowed to dry in Petri dishes. Treated petals were placed into individual re-sealable plastic along with about 20 adult thrips. All test arenas were held under continuous light and a temperature of about 28°C for duration of the assay. After 3 days, the numbers of live thrips were counted on each petal. The percent mortality was recorded 72 hours after treatment.

Spodoptera eridania = experiment: Southern armyworm (Spodoptera eridania), 2nd instar larvae, foliar spray on lima bean plants; details: 96 h, 2nd instar larvae on sprayed lima bean plants, assessed 4 days after treatment, read-out: mortality in comparison with untreated controls
Procedure: The active compounds were formulated by a Tecan liquid handler in 100% cyclohexanone as a 10,000 ppm solution supplied in tubes. The 10,000 ppm solution was serially diluted in 100% cyclohexanone to make interim solutions. These served as stock solutions for which final dilutions were made by the Tecan in 50% acetone:50% water (v/v) into 10 or 20ml glass vials. A nonionic surfactant (Kinetic®) was included in the solution at a volume of 0.01% (v/v). The vials were then inserted into an automated electrostatic sprayer equipped with an atomizing nozzle for application to plants/insects. Lima bean plants (variety Sieva) were grown 2 plants to a pot and selected for treatment at the 1st true leaf stage. Test solutions were sprayed onto the foliage by an auto-mated electrostatic plant sprayer equipped with an atomizing spray nozzle. The plants were dried in the sprayer fume hood and then removed from the sprayer. Each pot was placed into perforated plastic bags with a zip closure. Ten to 11 armyworm larvae were placed into the bag and the bags zipped closed. Test plants were maintained in a growth room at about 25°C and about 20-40% relative humidity for 4 days, avoiding direct exposure to fluorescent light (14:10 light:dark photoperiod) to prevent trapping of heat inside the bags. Mortality and reduced feeding were assessed 4 days after treatment, compared to untreated control plants.

Anthonomus grandis = experiment: Boll weevil (Anthonomus grandis) control, 96-well microtiter plate insect diet test with eggs; details: 120 h, egg and larval mortality visually assessed after 5 days at about 25 ± 1°C, read-out: mortality in comparison with untreated controls
Procedure: For evaluating control of boll weevil (Anthonomus grandis) the test unit consisted of 96-well-microtiter plates containing an insect diet and 5-10 A. grandis eggs.
The compounds were formulated using a solution containing 75% v/v water and 25% v/v DMSO. Different concentrations of formulated compounds were sprayed onto the insect diet at 5µl, using a custom-built micro atomizer, at two replications.
After application, microtiter plates were incubated at about 25 ± 1°C and about 75 ± 5 % relative humidity for 5 days. Egg and larval mortality was then visually assessed.

Aedes aegypti = experiment: whole plant or invertebrate; details: 48 h, larval mortality visually assessed after 2 days at 28±1°C, read-out: mortality in comparison with untreated controls
Procedure: For evaluating control of yellow fever mosquito (Aedes aegypti) the test unit consisted of 96-well-microtiter plates containing 200µl of tap water per well and 5-15 freshly hatched A. aegypti larvae.
The active compounds were formulated using a solution containing 75% (v/v) water and 25% (v/v) DMSO. Different concentrations of formulated compounds or mixtures were sprayed onto the insect diet at 2.5µl, using a custom-built micro atomizer, at two replications.
After application, microtiter plates were incubated at 28±1°C, 80±5 % RH for 2 days. Larval mortality was then visually assessed.

Heliothis virescens = experiment: Tobacco budworm (Heliothis virescens) control, 96-well microtiter plate insect diet test with eggs; details: 120 h, egg and larval mortality visually assessed after 5 days at about 28 ± 1°C, read-out: mortality in comparison with untreated controls
Procedure: For evaluating control of tobacco budworm (Heliothis virescens) the test unit consisted of 96-well-microtiter plates containing an insect diet and 15-25 H. virescens eggs.
The compounds were formulated using a solution containing 75% v/v water and 25% v/v DMSO. Different concentrations of formulated compounds were sprayed onto the insect diet at 10 µl, using a custom-built micro atomizer, at two replications.
After application, microtiter plates were incubated at about 28 ± 1°C and about 80 ± 5 % relative humidity for 5 days. Egg and larval mortality was then visually assessed.

CC(NC(=O)c1cc(Cl)cc(C(F)(F)F)c1)c1ncccc1-n1nccn1 (stereo not drawn) [Compound I-1]
≥ 75%: mortality at 300 ppm (Dichromothrips corbetti) | mortality at 300 ppm (Spodoptera eridania) | mortality at 2500 ppm (Anthonomus grandis) | mortality at 2500 ppm (Aedes aegypti) | mortality at 2500 ppm (Heliothis virescens)

CC(NC(=O)c1cc(Cl)cc(C(F)(F)F)c1)c1ncccc1-n1cc(C#N)cn1 (stereo not drawn) [Compound I-2]
≥ 75%: mortality at 300 ppm (Spodoptera eridania) | mortality at 2500 ppm (Anthonomus grandis) | mortality at 2500 ppm (Aedes aegypti)

CC(NC(=O)c1cc(Cl)cc(C(F)(F)F)c1)c1nc(Cl)ccc1-n1nccn1 (stereo not drawn) [Compound I-3, 3-chloro-N-[1-[6-chloro-3-(triazol-2-yl)-2-pyridyl]ethyl]-5-(trifluoromethyl)benzamide]
≥ 75%: mortality at 300 ppm (Spodoptera eridania) | mortality at 2500 ppm (Anthonomus grandis) | mortality at 2500 ppm (Aedes aegypti) | mortality at 2500 ppm (Heliothis virescens)
